# Assays:
# Test in all cases: radiometric filter-binding kinase assay
# [1] = test system: AKT1 (human), P31749 [S473D]
# [2] = test system: AKT2 (human), P31751 [S474D]
# CSNK2A1 (human) = CSNK2A1 (human) (UniProt P68400)
# DYRK3 (human) = DYRK3 (human) (UniProt O43781)
# EPHA2 (human) = EPHA2 (human) (UniProt P29317)
# EPHB1 (human) = EPHB1 (human) (UniProt P54762)
# FGFR1 (human) = FGFR1 (human) (UniProt P11362)
# GSK3B (human) = GSK3B (human) (UniProt P49841)
# INSR (human) = INSR (human) (UniProt P06213)
# Sequence of INSR (human) (P06213 whole entry, looked up): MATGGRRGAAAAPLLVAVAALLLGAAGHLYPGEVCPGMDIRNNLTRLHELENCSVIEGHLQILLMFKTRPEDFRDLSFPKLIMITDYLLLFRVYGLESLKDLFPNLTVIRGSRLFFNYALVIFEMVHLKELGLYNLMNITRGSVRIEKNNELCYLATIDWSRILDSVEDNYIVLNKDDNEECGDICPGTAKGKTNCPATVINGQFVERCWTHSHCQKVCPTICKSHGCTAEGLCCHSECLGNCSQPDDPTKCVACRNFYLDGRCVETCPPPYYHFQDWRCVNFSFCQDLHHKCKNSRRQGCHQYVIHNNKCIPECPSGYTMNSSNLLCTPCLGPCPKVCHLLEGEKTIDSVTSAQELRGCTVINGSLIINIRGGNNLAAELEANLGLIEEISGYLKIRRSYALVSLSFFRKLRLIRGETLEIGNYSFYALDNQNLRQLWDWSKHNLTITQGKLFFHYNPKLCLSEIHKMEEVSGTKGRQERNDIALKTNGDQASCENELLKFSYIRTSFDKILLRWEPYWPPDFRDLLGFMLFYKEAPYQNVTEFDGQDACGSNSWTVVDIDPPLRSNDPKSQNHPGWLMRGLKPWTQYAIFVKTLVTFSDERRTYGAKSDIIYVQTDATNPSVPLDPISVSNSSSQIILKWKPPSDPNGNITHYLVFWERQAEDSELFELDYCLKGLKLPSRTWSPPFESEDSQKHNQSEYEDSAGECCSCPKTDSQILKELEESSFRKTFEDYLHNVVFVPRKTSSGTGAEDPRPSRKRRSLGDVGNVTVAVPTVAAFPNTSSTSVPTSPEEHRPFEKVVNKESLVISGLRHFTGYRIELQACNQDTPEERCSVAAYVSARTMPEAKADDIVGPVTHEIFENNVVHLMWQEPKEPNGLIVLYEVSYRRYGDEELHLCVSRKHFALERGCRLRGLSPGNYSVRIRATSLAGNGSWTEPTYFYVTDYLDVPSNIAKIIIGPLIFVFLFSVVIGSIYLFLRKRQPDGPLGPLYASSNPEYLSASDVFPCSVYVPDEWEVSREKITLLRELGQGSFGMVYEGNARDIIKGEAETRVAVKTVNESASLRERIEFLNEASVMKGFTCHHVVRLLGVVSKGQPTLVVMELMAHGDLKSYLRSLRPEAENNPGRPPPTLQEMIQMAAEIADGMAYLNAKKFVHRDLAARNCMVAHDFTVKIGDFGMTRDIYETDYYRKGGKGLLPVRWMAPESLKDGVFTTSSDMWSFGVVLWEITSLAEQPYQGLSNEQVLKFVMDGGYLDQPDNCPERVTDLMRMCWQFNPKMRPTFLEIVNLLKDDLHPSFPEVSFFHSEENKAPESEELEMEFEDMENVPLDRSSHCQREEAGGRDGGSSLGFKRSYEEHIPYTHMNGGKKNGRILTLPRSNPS
# INSRR (human) = INSRR (human) (UniProt P14616)
# IRAK4 (human) = IRAK4 (human) (UniProt Q9NWZ3)
# LCK (mouse) = conditions: accession and sequence are those of the human protein
# MAP2K1 (human) = MAP2K1 (human) (UniProt Q02750)
# Sequence of MAP2K1 (human) (Q02750 whole entry, looked up): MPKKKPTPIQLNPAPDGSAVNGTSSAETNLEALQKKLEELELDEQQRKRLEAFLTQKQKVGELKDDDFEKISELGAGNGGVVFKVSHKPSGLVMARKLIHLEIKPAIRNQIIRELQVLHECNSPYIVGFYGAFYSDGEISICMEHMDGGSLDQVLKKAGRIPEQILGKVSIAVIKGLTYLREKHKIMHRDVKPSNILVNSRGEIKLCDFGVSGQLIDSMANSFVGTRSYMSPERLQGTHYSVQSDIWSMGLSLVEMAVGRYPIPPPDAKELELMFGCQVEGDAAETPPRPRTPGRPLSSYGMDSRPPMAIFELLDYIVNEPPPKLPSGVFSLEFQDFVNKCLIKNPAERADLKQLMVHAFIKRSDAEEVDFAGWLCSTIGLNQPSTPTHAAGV
# MAP2K6 (human) = MAP2K6 (human) (UniProt P52564)
# Sequence of MAP2K6 (human) (P52564 whole entry, looked up): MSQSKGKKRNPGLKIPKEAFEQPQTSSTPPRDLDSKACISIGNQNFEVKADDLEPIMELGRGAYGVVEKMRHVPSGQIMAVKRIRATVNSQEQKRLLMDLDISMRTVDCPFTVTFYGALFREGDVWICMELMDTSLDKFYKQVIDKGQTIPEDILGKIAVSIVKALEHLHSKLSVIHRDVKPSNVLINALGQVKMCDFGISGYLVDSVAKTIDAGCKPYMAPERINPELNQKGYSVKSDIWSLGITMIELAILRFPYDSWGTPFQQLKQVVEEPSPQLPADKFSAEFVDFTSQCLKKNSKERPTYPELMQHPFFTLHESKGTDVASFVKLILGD
# MAP3K9 (human) = MAP3K9 (human) (UniProt P80192)
# MAPK10 (human) = MAPK10 (human) (UniProt P53779)
# Sequence of MAPK10 (human) (P53779 whole entry, looked up): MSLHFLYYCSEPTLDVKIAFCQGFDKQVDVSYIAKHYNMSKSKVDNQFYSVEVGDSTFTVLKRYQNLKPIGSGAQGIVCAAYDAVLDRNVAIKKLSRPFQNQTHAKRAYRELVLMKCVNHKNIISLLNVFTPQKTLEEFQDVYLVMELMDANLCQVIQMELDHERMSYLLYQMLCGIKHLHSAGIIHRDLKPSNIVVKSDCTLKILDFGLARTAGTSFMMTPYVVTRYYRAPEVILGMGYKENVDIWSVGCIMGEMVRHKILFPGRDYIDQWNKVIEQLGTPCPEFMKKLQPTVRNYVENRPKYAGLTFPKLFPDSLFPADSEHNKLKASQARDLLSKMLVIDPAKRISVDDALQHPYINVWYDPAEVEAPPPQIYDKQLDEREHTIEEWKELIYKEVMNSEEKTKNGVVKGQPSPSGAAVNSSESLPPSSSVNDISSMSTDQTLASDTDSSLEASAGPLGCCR
# MAPK11 (human) = MAPK11 (human) (UniProt Q15759)
# MAPK13 (human) = MAPK13 (human) (UniProt O15264)
# MARK1 (human) = MARK1 (human) (UniProt Q9P0L2)
# MARK2 (human) = MARK2 (human) (UniProt Q7KZI7)
# MKNK1 (human) = MKNK1 (human) (UniProt Q9BUB5)
# MYLK (human) = MYLK (human) (UniProt Q15746)
# NEK2 (human) = NEK2 (human) (UniProt P51955)
# NEK6 (human) = NEK6 (human) (UniProt Q9HC98)
# [3] = test system: PAK2 (human), Q13177 [T402E]
# PHKG1 (human) = PHKG1 (human) (UniProt Q16816)
# PIM2 (human) = PIM2 (human) (UniProt Q9P1W9)
# PIM3 (human) = PIM3 (human) (UniProt Q86V86)
# PKN2 (human) = PKN2 (human) (UniProt Q16513)
# ROCK2 (rat) = conditions: accession and sequence are those of the human protein
# [4] = test system: RPS6KB1 (human), P23443 [T412E]
# SRPK1 (human) = SRPK1 (human) (UniProt Q96SB4)
# [5] = biological target: STK11 CAB39 STRADA (human) (UniProt Q9Y376+Q7RTN6+Q15831)
# SYK (human) = SYK (human) (UniProt P43405)
# TBK1 (human) = TBK1 (human) (UniProt Q9UHD2)
# TTK (human) = TTK (human) (UniProt P33981)
# Sequence of AKT1 (human), P31749 [S473D] (P31749 whole entry S473D, looked up): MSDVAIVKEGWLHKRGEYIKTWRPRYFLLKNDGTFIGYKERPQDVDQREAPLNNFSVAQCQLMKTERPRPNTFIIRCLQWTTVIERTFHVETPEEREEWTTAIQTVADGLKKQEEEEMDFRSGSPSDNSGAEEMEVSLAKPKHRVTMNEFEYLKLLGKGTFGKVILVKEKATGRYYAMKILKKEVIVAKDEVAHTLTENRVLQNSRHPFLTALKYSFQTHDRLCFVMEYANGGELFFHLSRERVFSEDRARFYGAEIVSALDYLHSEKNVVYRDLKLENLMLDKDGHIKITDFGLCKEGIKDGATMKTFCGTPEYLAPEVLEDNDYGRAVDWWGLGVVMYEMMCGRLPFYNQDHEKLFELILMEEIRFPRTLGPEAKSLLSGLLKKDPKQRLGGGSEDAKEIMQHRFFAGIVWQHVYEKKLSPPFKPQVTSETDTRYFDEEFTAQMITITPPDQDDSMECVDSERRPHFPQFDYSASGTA
# Sequence of GSK3B (human) (P49841 whole entry, looked up): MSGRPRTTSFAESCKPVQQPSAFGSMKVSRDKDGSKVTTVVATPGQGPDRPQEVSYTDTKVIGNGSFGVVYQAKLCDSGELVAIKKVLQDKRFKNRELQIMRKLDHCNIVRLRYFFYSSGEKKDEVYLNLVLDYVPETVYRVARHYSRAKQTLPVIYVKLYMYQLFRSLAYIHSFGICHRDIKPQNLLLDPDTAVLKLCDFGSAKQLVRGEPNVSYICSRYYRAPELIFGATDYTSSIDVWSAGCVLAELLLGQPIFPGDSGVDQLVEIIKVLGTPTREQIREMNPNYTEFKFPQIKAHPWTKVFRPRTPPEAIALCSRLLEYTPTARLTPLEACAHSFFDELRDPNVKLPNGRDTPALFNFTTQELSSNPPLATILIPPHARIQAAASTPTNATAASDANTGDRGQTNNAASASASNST
# Sequence of CSNK2A1 (human) (P68400 whole entry, looked up): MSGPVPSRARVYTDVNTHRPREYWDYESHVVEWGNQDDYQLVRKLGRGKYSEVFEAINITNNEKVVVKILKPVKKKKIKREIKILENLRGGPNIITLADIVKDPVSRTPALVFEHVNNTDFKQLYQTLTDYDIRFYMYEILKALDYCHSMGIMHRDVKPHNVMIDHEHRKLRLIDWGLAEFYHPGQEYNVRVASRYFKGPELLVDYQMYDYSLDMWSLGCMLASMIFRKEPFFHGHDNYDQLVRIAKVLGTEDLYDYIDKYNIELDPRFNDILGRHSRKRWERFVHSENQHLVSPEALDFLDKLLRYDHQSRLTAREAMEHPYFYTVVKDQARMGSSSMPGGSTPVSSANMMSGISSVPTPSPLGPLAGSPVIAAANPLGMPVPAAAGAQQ
# Sequence of EPHA2 (human) (P29317 whole entry, looked up): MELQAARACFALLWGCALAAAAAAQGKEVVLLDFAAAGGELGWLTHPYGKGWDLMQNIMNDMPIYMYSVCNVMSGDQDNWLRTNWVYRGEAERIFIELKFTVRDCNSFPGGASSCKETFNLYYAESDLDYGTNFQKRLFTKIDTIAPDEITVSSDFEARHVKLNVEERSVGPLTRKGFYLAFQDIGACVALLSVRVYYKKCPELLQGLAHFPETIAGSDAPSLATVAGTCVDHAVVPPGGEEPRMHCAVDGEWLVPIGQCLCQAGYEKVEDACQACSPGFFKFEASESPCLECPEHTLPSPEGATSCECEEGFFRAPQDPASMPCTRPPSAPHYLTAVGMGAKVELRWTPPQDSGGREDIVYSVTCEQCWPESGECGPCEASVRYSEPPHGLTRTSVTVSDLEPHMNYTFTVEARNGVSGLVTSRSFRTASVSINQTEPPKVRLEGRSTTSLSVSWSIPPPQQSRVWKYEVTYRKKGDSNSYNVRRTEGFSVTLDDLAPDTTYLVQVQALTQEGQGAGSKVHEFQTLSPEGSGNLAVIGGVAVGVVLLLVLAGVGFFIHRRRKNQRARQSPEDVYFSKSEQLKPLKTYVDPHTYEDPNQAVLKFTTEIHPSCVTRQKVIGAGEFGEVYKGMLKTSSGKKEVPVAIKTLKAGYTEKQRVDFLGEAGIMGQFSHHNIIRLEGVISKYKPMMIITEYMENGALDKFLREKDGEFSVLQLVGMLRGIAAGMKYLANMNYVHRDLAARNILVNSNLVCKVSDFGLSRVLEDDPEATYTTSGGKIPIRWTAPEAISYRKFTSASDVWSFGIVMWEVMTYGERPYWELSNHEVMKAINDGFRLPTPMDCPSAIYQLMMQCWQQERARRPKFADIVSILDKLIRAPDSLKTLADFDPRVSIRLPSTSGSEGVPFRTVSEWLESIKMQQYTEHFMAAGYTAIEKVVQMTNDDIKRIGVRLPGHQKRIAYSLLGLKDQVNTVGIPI
smiles,measurement,setting,value
N#Cc1c(C2CCNCC2)cc(-c2c(O)cccc2OCC2CC2)nc1N,residual activity,[1]; compound 1.0 µM,81%
same,residual activity,[1]; compound 10.0 µM,63%
same,residual activity,[2]; compound 1.0 µM,85%
same,residual activity,[2]; compound 10.0 µM,62%
same,residual activity,CSNK2A1 (human); compound 1.0 µM,91%
same,residual activity,CSNK2A1 (human); compound 10.0 µM,93%
same,residual activity,DYRK3 (human); compound 1.0 µM,84%
same,residual activity,DYRK3 (human); compound 10.0 µM,40%
same,residual activity,EPHA2 (human); compound 1.0 µM,99%
same,residual activity,EPHA2 (human); compound 10.0 µM,78%
same,residual activity,EPHB1 (human); compound 1.0 µM,96%
same,residual activity,EPHB1 (human); compound 10.0 µM,100%
same,residual activity,FGFR1 (human); compound 1.0 µM,97%
same,residual activity,FGFR1 (human); compound 10.0 µM,72%
same,residual activity,GSK3B (human); compound 1.0 µM,80%
same,residual activity,GSK3B (human); compound 10.0 µM,73%
same,residual activity,INSR (human); compound 1.0 µM,51%
same,residual activity,INSR (human); compound 10.0 µM,33%
same,residual activity,INSRR (human); compound 1.0 µM,117%
same,residual activity,INSRR (human); compound 10.0 µM,61%
same,residual activity,IRAK4 (human); compound 1.0 µM,124%
same,residual activity,IRAK4 (human); compound 10.0 µM,70%
same,residual activity,LCK (mouse); compound 1.0 µM,82%
same,residual activity,LCK (mouse); compound 10.0 µM,33%
same,residual activity,MAP2K1 (human); compound 1.0 µM,117%
same,residual activity,MAP2K1 (human); compound 10.0 µM,51%
same,residual activity,MAP2K6 (human); compound 1.0 µM,76%
same,residual activity,MAP2K6 (human); compound 10.0 µM,83%
same,residual activity,MAP3K9 (human); compound 1.0 µM,73%
same,residual activity,MAP3K9 (human); compound 10.0 µM,66%
same,residual activity,MAPK10 (human); compound 1.0 µM,73%
same,residual activity,MAPK10 (human); compound 10.0 µM,68%
same,residual activity,MAPK11 (human); compound 1.0 µM,88%
same,residual activity,MAPK11 (human); compound 10.0 µM,71%
same,residual activity,MAPK13 (human); compound 1.0 µM,85%
same,residual activity,MAPK13 (human); compound 10.0 µM,68%
same,residual activity,MARK1 (human); compound 1.0 µM,88%
same,residual activity,MARK1 (human); compound 10.0 µM,95%
same,residual activity,MARK2 (human); compound 1.0 µM,89%
same,residual activity,MARK2 (human); compound 10.0 µM,96%
same,residual activity,MKNK1 (human); compound 1.0 µM,101%
same,residual activity,MKNK1 (human); compound 10.0 µM,90%
same,residual activity,MYLK (human); compound 1.0 µM,70%
same,residual activity,MYLK (human); compound 10.0 µM,25%
same,residual activity,NEK2 (human); compound 1.0 µM,85%
same,residual activity,NEK2 (human); compound 10.0 µM,94%
same,residual activity,NEK6 (human); compound 1.0 µM,99%
same,residual activity,NEK6 (human); compound 10.0 µM,101%
same,residual activity,[3]; compound 1.0 µM,83%
same,residual activity,[3]; compound 10.0 µM,78%
same,residual activity,PHKG1 (human); compound 1.0 µM,77%
same,residual activity,PHKG1 (human); compound 10.0 µM,59%
same,residual activity,PIM2 (human); compound 1.0 µM,34%
same,residual activity,PIM2 (human); compound 10.0 µM,12%
same,residual activity,PIM3 (human); compound 1.0 µM,56%
same,residual activity,PIM3 (human); compound 10.0 µM,27%
same,residual activity,PKN2 (human); compound 1.0 µM,94%
same,residual activity,PKN2 (human); compound 10.0 µM,53%
same,residual activity,ROCK2 (rat); compound 1.0 µM,88%
same,residual activity,ROCK2 (rat); compound 10.0 µM,61%
same,residual activity,[4]; compound 1.0 µM,88%
same,residual activity,[4]; compound 10.0 µM,53%
same,residual activity,SRPK1 (human); compound 1.0 µM,92%
same,residual activity,SRPK1 (human); compound 10.0 µM,101%
same,residual activity,[5]; compound 1.0 µM,78%
same,residual activity,[5]; compound 10.0 µM,65%
same,residual activity,SYK (human); compound 1.0 µM,88%
same,residual activity,SYK (human); compound 10.0 µM,81%
same,residual activity,TBK1 (human); compound 1.0 µM,80%
same,residual activity,TBK1 (human); compound 10.0 µM,86%
same,residual activity,TTK (human); compound 1.0 µM,89%
same,residual activity,TTK (human); compound 10.0 µM,66%
c1ccc2c(-c3cnn4cc(-c5ccc(N6CCNCC6)cc5)cnc34)ccnc2c1,residual activity,[1]; compound 0.1 µM,102%
same,residual activity,[1]; compound 1.0 µM,103%
same,residual activity,[2]; compound 0.1 µM,77%
same,residual activity,[2]; compound 1.0 µM,91%
same,residual activity,[2]; compound 10.0 µM,58%
same,residual activity,CSNK2A1 (human); compound 0.1 µM,90%
same,residual activity,CSNK2A1 (human); compound 1.0 µM,89%
same,residual activity,CSNK2A1 (human); compound 10.0 µM,81%
same,residual activity,DYRK3 (human); compound 0.1 µM,86%
same,residual activity,DYRK3 (human); compound 1.0 µM,89%
same,residual activity,EPHA2 (human); compound 0.1 µM,81%
same,residual activity,EPHA2 (human); compound 1.0 µM,81%
same,residual activity,EPHA2 (human); compound 10.0 µM,50%
same,residual activity,EPHB1 (human); compound 0.1 µM,117%
same,residual activity,EPHB1 (human); compound 10.0 µM,100%
same,residual activity,FGFR1 (human); compound 0.1 µM,69%
same,residual activity,FGFR1 (human); compound 1.0 µM,20%
same,residual activity,FGFR1 (human); compound 10.0 µM,8%
same,residual activity,GSK3B (human); compound 0.1 µM,81%
same,residual activity,GSK3B (human); compound 1.0 µM,83%
same,residual activity,GSK3B (human); compound 10.0 µM,62%
same,residual activity,INSR (human); compound 0.1 µM,105%
same,residual activity,INSR (human); compound 1.0 µM,107%
same,residual activity,INSR (human); compound 10.0 µM,93%
same,residual activity,INSRR (human); compound 0.1 µM,82%
same,residual activity,INSRR (human); compound 1.0 µM,68%
same,residual activity,INSRR (human); compound 10.0 µM,37%
same,residual activity,IRAK4 (human); compound 0.1 µM,88%
same,residual activity,IRAK4 (human); compound 1.0 µM,91%
same,residual activity,IRAK4 (human); compound 10.0 µM,53%
same,residual activity,LCK (mouse); compound 0.1 µM,81%
same,residual activity,LCK (mouse); compound 1.0 µM,40%
same,residual activity,LCK (mouse); compound 10.0 µM,7%
same,residual activity,MAP2K1 (human); compound 0.1 µM,98%
same,residual activity,MAP2K1 (human); compound 1.0 µM,93%
same,residual activity,MAP2K1 (human); compound 10.0 µM,67%
same,residual activity,MAP2K6 (human); compound 0.1 µM,87%
same,residual activity,MAP2K6 (human); compound 1.0 µM,89%
same,residual activity,MAP2K6 (human); compound 10.0 µM,104%
same,residual activity,MAP3K9 (human); compound 0.1 µM,104%
same,residual activity,MAP3K9 (human); compound 1.0 µM,70%
same,residual activity,MAPK10 (human); compound 0.1 µM,98%
same,residual activity,MAPK10 (human); compound 1.0 µM,97%
same,residual activity,MAPK10 (human); compound 10.0 µM,94%
same,residual activity,MAPK11 (human); compound 1.0 µM,104%
same,residual activity,MAPK11 (human); compound 10.0 µM,96%
same,residual activity,MAPK13 (human); compound 0.1 µM,89%
same,residual activity,MAPK13 (human); compound 1.0 µM,110%
same,residual activity,MAPK13 (human); compound 10.0 µM,72%
same,residual activity,MARK1 (human); compound 0.1 µM,88%
same,residual activity,MARK1 (human); compound 1.0 µM,54%
same,residual activity,MARK1 (human); compound 10.0 µM,14%
same,residual activity,MARK2 (human); compound 0.1 µM,76%
same,residual activity,MARK2 (human); compound 1.0 µM,63%
same,residual activity,MARK2 (human); compound 10.0 µM,32%
same,residual activity,MKNK1 (human); compound 0.1 µM,82%
same,residual activity,MKNK1 (human); compound 1.0 µM,63%
same,residual activity,MKNK1 (human); compound 10.0 µM,39%
same,residual activity,MYLK (human); compound 0.1 µM,104%
same,residual activity,MYLK (human); compound 1.0 µM,107%
same,residual activity,MYLK (human); compound 10.0 µM,60%
same,residual activity,NEK2 (human); compound 0.1 µM,118%
same,residual activity,NEK2 (human); compound 1.0 µM,119%
same,residual activity,NEK2 (human); compound 10.0 µM,79%
same,residual activity,NEK6 (human); compound 0.1 µM,80%
same,residual activity,NEK6 (human); compound 1.0 µM,83%
same,residual activity,NEK6 (human); compound 10.0 µM,88%
same,residual activity,[3]; compound 0.1 µM,100%
same,residual activity,[3]; compound 10.0 µM,94%
same,residual activity,PHKG1 (human); compound 0.1 µM,85%
same,residual activity,PHKG1 (human); compound 1.0 µM,60%
same,residual activity,PHKG1 (human); compound 10.0 µM,21%
same,residual activity,PIM2 (human); compound 0.1 µM,98%
same,residual activity,PIM2 (human); compound 1.0 µM,104%
same,residual activity,PIM2 (human); compound 10.0 µM,92%
same,residual activity,PIM3 (human); compound 0.1 µM,105%
same,residual activity,PIM3 (human); compound 1.0 µM,103%
same,residual activity,PIM3 (human); compound 10.0 µM,84%
same,residual activity,PKN2 (human); compound 0.1 µM,65%
same,residual activity,PKN2 (human); compound 1.0 µM,69%
same,residual activity,PKN2 (human); compound 10.0 µM,37%
same,residual activity,ROCK2 (rat); compound 0.1 µM,98%
same,residual activity,ROCK2 (rat); compound 1.0 µM,86%
same,residual activity,ROCK2 (rat); compound 10.0 µM,85%
same,residual activity,[4]; compound 1.0 µM,92%
same,residual activity,[4]; compound 10.0 µM,84%
same,residual activity,SRPK1 (human); compound 0.1 µM,95%
same,residual activity,SRPK1 (human); compound 1.0 µM,116%
same,residual activity,SRPK1 (human); compound 10.0 µM,79%
same,residual activity,[5]; compound 0.1 µM,109%
same,residual activity,[5]; compound 1.0 µM,98%
same,residual activity,[5]; compound 10.0 µM,80%
same,residual activity,SYK (human); compound 0.1 µM,82%
same,residual activity,SYK (human); compound 1.0 µM,80%
same,residual activity,SYK (human); compound 10.0 µM,36%
same,residual activity,TBK1 (human); compound 0.1 µM,74%
same,residual activity,TBK1 (human); compound 1.0 µM,62%
same,residual activity,TBK1 (human); compound 10.0 µM,26%
same,residual activity,TTK (human); compound 0.1 µM,89%
same,residual activity,TTK (human); compound 1.0 µM,101%
same,residual activity,TTK (human); compound 10.0 µM,61%
